Reference: PubChem BioAssay AID463206 (Broad Institute, 2010)
Activity calls are given as the source filed them.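 Rule for the calls: active = caspase luminescence falls with dose and the half-maximal concentration AC50 from the fitted curve is at or below a set limit; inconclusive = flat fit at 30 to 70% signal loss, or invalid fit; inactive = AC50 above the limit, or signal rises instead.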

The compounds below were run on INS-1E cytokine-induced caspase-3/7, Caspase-Glo luminescence, 48 h (assay: inhibitors of cytokine-induced caspase-3/7 activity, dose response, orthogonal assay for beta-cell apoptosis protection project, INS-1E rat cells, luminescence (AID 463206)).

Structure (SMILES) | AC50
COc1ccccc1C(CCNCc1ccc(N(C)C)cc1)c1ccc(OC(C)C)cc1 (configuration not stated) | > 26 µM (inactive)
COc1ccc(-n2cc(-c3ccc(C)cc3)[n+]3c2SCC3)cc1 | > 26 µM (inactive)
O=C(Nc1ccc(-c2csc(Nc3cccc(C(F)(F)F)c3)n2)cc1)c1cc([N+](=O)[O-])cc(C(F)(F)F)c1 | > 26 µM (inactive)
Cc1ccc(-c2nn(-c3ccccc3)cc2/C=C/C(=O)Nc2cccc(S(N)(=O)=O)c2)cc1 | > 26 µM (inactive)
Cc1ccc(-c2csc(NC(=O)c3c(C)noc3C)n2)s1 | > 26 µM (inactive)
COc1ccc(NS(=O)(=O)c2ccc(N3CCCCC3)c(N)c2)cc1 | > 26 µM (inactive)
COC(=O)[C@H](CC(C)C)N(Cc1ccccc1)S(=O)(=O)N(Cc1ccc(OC)cc1)[C@@H](CC(C)C)C(=O)OC | > 26 µM (inactive)
CC(=O)Nc1ccc(Nc2c3ccccc3nc3ccccc23)cc1 | 8.76 µM
CC(=O)c1ccc(NC(=S)NCc2cccnc2)cc1 | > 26 µM (inactive)
Cc1cccc(NC(=O)Nc2cccc(Oc3c(F)c(F)c(F)c(F)c3F)c2)c1 | > 26 µM (inactive)
COc1ccc(N(C(=O)CCl)C(C(=O)NCCc2ccccc2)c2cccs2)cc1Cl (configuration not stated) | > 26 µM (inactive)
O=C(c1ccc2c(c1)[nH]c(=S)n1c3ccccc3nc21)N1CCN(c2cccc(Cl)c2)CC1 | > 26 µM (inactive)
C#Cc1ccc([C@@H]2C=C(C(=O)N3CCN(Cc4ccccc4)CC3)O[C@H](OCCCCO)C2)cc1 | > 26 µM (inactive)
Cc1cc(N2CCN(C)CC2)ccc1NC(=O)c1c2c(nc3ccccc13)CCN(Cc1ccccc1)C2 | 14.7 µM
Nc1c(C(=O)Nc2ccc(S(=O)(=O)N3CCCC3)cc2)sc2nc3ccc(OC(F)(F)F)cc3cc12 | > 26 µM (inactive)
CCOc1ccc(Nc2nc(Cc3nnc(SCC(=O)c4ccc(C)c(C)c4)o3)cs2)cc1 | > 26 µM (inactive)
COc1cc(CC(=O)Nc2nc(-c3ccc(F)c(F)c3)cs2)cc(OC)c1OC | > 26 µM (inactive)
CCCCC[n+]1cccc2c3ccccc3ccc21 | > 26 µM (inactive)
Cc1[nH]n(-c2ccccc2)c(=O)c1N=Nc1c(O)cc(S(=O)(=O)N(C)C)c2ccccc12 | > 26 µM (inactive)
Cc1cc(C)cc(Oc2cc(NC(=O)c3cn(C)nc3C)cc([N+](=O)[O-])c2)c1 | > 26 µM (inactive)
Cc1c(C(=O)N/N=C/c2c(O)ccc3ccccc23)nnn1-c1nonc1N | > 26 µM (inactive)
CC1CCN(C(=O)CCNS(=O)(=O)c2ccc(Br)cc2)CC1 | > 26 µM (inactive)
CCN(CC)CCOc1ccc2c(c1)C(=NNC(=O)c1ccccn1)c1cc(OCCN(CC)CC)ccc1-2 | > 26 µM (inactive)

Structure (SMILES) | AC50
COc1cc(NC(=O)c2ccc([N+](=O)[O-])o2)ccc1NC(=O)c1cccs1 | > 26 µM (inactive)
C#CCn1c(=NC(=O)c2ccc(S(=O)(=O)N3CCc4ccccc4C3)cc2)sc2cc(S(N)(=O)=O)ccc21 | > 26 µM (inactive)
C=C(C=O)C[C@@H]1C[C@H](O)C2OC3C[C@]4(C)OC5/C=C\CC6OC7C(CC=CCC6OC5CCCC4OC3CC2O1)OC1CC2OC3CC(=O)OC3C[C@@H](C)C[C@@]2(C)OC1C[C@@H]7C (some centres not stated) | > 26 µM (inactive)
CN(C)S(=O)(=O)c1cccc(NC(=S)N/N=C/c2cc(Br)ccc2O)c1 | > 26 µM (inactive)
Cc1cccnc1CCNCc1c(C(=O)N2C[C@@H](C)O[C@@H](C)C2)nc2ccc(Cl)cn12 | > 26 µM (inactive)
Cc1nc2c3cc(F)ccc3n(Cc3ccccc3)c2s1 | > 26 µM (inactive)
Nc1c(N(CCC2=CCCCC2)C(=O)COc2ccc(F)cc2)c(=O)[nH]c(=O)n1Cc1ccccc1 | > 26 µM (inactive)
COc1nc(Nc2nc3ccccc3c(=O)[nH]2)nc2ccc(C)cc12 | > 26 µM (inactive)
O=C(NCc1cccnc1)/C(=C\c1ccc(-c2cccc(Cl)c2)o1)S(=O)(=O)c1ccccc1 | > 26 µM (inactive)
O=C(Nc1nc2ccc([N+](=O)[O-])cc2s1)c1ccc(S(=O)(=O)N2CCCc3ccccc32)cc1 | > 26 µM (inactive)
O=C1C(Cl)=C(Nc2ccc3cn[nH]c3c2)C(=O)c2ccccc21 | > 26 µM (inactive)
Cn1nc(-c2ccccn2)nc2c(=O)n(C)c(=O)nc1-2 | > 26 µM (inactive)
Cc1ccc(C(=O)NC(=S)/C=C2\N(C)c3ccccc3C2(C)C)cc1 | > 26 µM (inactive)
COc1cc([N+](=O)[O-])cc(/C=N/NC(=O)c2cc(-c3ccccc3)nc3ccccc23)c1O | > 26 µM (inactive)
Oc1ccc(Nc2nc(N3CCCC3)c3ccccc3n2)cc1 | 8.57 µM
COc1ccccc1NCC(=O)N1CCN(S(=O)(=O)c2ccccc2)CC1 | > 26 µM (inactive)
O=C(N/N=C/c1ccccc1)c1c(O)c2ccccc2[nH]c1=O | > 26 µM (inactive)
N#Cc1ccc(NC(=O)Nc2ccc(Cl)cc2)cc1 | > 26 µM (inactive)
Cc1ccc(C[n+]2cccc(-c3ccccc3)c2)c(C)c1 | > 26 µM (inactive)
CNC(=S)N(Cc1cccs1)Cc1cc2cc(OC)c(OC)cc2[nH]c1=O | > 26 µM (inactive)
CCN(CC)S(=O)(=O)c1ccc(N2CCN(c3ccccc3OC)CC2)c(N)c1 | > 26 µM (inactive)
COc1ccccc1NC(=O)c1nc(S(=O)(=O)Cc2ccccc2)ncc1Cl | > 26 µM (inactive)
Cc1ccc(N=Nc2ccc(O)c3ncccc23)cc1 | > 26 µM (inactive)

Structure (SMILES) | AC50
COc1cccc(/C=N/NC(=O)c2ccoc2C)c1O | > 26 µM (inactive)
Cn1c(NN=O)nc2ccccc21 | > 26 µM (inactive)
O=C1/C(=C/c2ccc(N3CCOCC3)o2)SC(=Nc2ccccc2)N1CCc1c[nH]c2ccccc12 | > 26 µM (inactive)
CCCCCc1cc(=O)oc2c(C(CCN3CCCC(C)C3)c3ccc(OC)cc3)c(OC)cc(OC)c12 (configuration not stated) | > 26 µM (inactive)
O=C1N/C(=N\N=C\c2cccnc2)SC1Cc1ccc(SC(F)F)cc1 (configuration not stated) | > 26 µM (inactive)
COc1ccc(NC(=O)/C(Cl)=C(/Cl)S(=O)Cc2ccc(C)cc2)cn1 (configuration not stated) | > 26 µM (inactive)
COc1ccc(-c2c[n+]3c(n2-c2ccccc2)CCCCC3)cc1 | > 26 µM (inactive)
CCCCCCOC(=O)C[N+](C)(C)CCOC1CC2CCC1(C)C2(C)C (configuration not stated) | > 26 µM (inactive)
Cc1ccn2c(Nc3ccccc3C)c(-c3ccccn3)nc2c1 | > 26 µM (inactive)
CCN(CC)c1ccc(/C=N/NC(=O)c2cnccn2)c(O)c1 | > 26 µM (inactive)
Cc1cc(/C=N/n2cnnc2)c(C)n1-c1ccc(OCc2ccc(Cl)cc2)cc1 | > 26 µM (inactive)
CCN1C/C(=C/c2cccc([N+](=O)[O-])c2)C(=O)/C(=C/c2cccc([N+](=O)[O-])c2)C1 | > 26 µM (inactive)
Cc1nnc(N=c2ssnc2Cl)o1 | > 26 µM (inactive)
CCCCCc1nc2c(c(=O)c3ccccc3n2C)c(=O)n1C1CCCCCC1 | > 26 µM (inactive)
CCCOc1ccc(C(=O)C(CN2CCOCC2)c2ccccc2)cc1 (configuration not stated) | > 12 µM (inactive)
CCN1CCN(Cc2ccc(NC(=O)c3cc(NC(=O)c4cnn(-c5ccccc5)c4N)cc(OC)c3)cc2C(F)(F)F)CC1 | > 26 µM (inactive)
C=CCn1c(C)c(/C=C/c2cc[n+](C)cc2)c2ccccc21 | > 26 µM (inactive)
Cc1cccnc1Nc1nc(-c2ccccn2)cs1 | > 26 µM (inactive)
c1ccc(Nc2nc(NCc3ccco3)c3ccccc3n2)cc1 | 23.7 µM
Cn1c(/C=C/c2ccc([N+](=O)[O-])o2)nc2ccccc2c1=O | > 26 µM (inactive)
Cc1cc(C)nc(-n2nc(C)cc2Nc2ccccc2)n1 | > 26 µM (inactive)
C[n+]1c2n(c3ccccc31)N=C(c1ccc(-c3ccccc3)cc1)CS2 | > 26 µM (inactive)
CCOC(=O)CSc1nc2c(c(=O)[nH]1)C(C)(CC)Cc1ccccc1-2 (configuration not stated) | > 26 µM (inactive)

Structure (SMILES) | AC50
Cc1ccc(S(=O)(=O)N2CCN(c3ncnc4sccc34)CC2)cc1 | > 26 µM (inactive)
Cc1cc(=O)[nH]c(N/N=C/c2ccccn2)n1 | > 26 µM (inactive)
CCOc1cc(/C=C2\CCC/C(=C\c3cc(Cl)c(O)c(OCC)c3)C2=O)cc(Cl)c1O | 9.51 µM
COc1ccc(-n2c(=S)[nH]c3cc(C(=O)Nc4ccccc4OC)ccc3c2=O)cc1 | > 26 µM (inactive)
COc1cccc(/C=N/Nc2ccc([N+](=O)[O-])cn2)c1O | > 26 µM (inactive)
CCOc1cc(/C=N/NC(=O)c2cc(-c3cccc(OC)c3)nc3ccccc23)ccc1O | > 26 µM (inactive)
O=C(N/N=C/c1sc(N2CCOCC2)nc1-c1ccccc1)c1cccc(S(=O)(=O)N2CCCC2)c1 | > 26 µM (inactive)
O=C(NCc1nc(-c2ccc(C(F)(F)F)cc2)no1)Nc1cc(Cl)cc(Cl)c1 | > 26 µM (inactive)
CCOc1ccc(C(=O)c2cc([N+](=O)[O-])ccc2N2CCOCC2)cc1 | 0.83 µM
C/C(=N\NC(=O)C(c1ccccc1)c1ccccc1)c1ccccn1 | > 26 µM (inactive)
COc1ccc(C)cc1Nc1n[n+](-c2ccccc2)c(-c2c(OC)ccc3ccccc23)s1 | > 26 µM (inactive)
O=C(NC(Nc1nc2ccc([N+](=O)[O-])cc2s1)(C(F)(F)F)C(F)(F)F)c1ccccc1 | > 26 µM (inactive)
Cc1[nH]c2ccccc2c1CN1CCN(c2ccccn2)CC1 | > 26 µM (inactive)
CC(=O)Nc1ccccc1OCC(=O)c1cc(C)n(Cc2cccs2)c1C | > 26 µM (inactive)
CC(C)(C)C1CCC2(CC1)C(C#N)=C(SCC(=O)NC1CCCCC1)NC(=O)C2C#N (configuration not stated) | > 26 µM (inactive)
CC(=O)Cc1cc(O)c2ccccc2c1OC(=O)c1ccc(Br)cc1 | > 26 µM (inactive)
O=C(CCC(=O)Nc1ccc(Br)cc1)N/N=C/c1ccccc1O | > 26 µM (inactive)
O=C(CN1C(=O)c2ccccc2S1(=O)=O)c1ccc(F)cc1 | > 26 µM (inactive)
Nc1ccccc1N=Cc1c(O)n(CCC2=CCCCC2)c(=O)[nH]c1=O | > 26 µM (inactive)
O=[N+]([O-])c1ccc(-c2nc3ccc([N+](=O)[O-])cc3[nH]2)cc1 | > 26 µM (inactive)
Nc1nonc1-n1nnc(C(=O)N/N=C/c2cc(Cl)ccc2O)c1CN1CCCCCC1 | > 26 µM (inactive)
OC(c1cc(-c2ccc(Cl)cc2)nc2ccccc12)C1CCCCN1 (configuration not stated) | > 26 µM (inactive)
O=S1(=O)CCN(Cc2csc(-c3cccs3)n2)CC1 | > 26 µM (inactive)
